According to US20250092014A1, “COMPOUNDS AND METHODS OF ACTIVATING LIPOPROTEIN LIPASE” (Metrea Biosciences, Inc., priority 2021, published 2025):

Each molecule was assayed against T1, LPL:sGPIHBP1 complex (Homo sapiens, UniProt P06858) (assay: RB assay (LPL:sGPIHBP1 pre-incubated with ANGPTL4, RB substrate)). Conditions: read-out: RB qAC50.
T1 sequence (P06858 28-475): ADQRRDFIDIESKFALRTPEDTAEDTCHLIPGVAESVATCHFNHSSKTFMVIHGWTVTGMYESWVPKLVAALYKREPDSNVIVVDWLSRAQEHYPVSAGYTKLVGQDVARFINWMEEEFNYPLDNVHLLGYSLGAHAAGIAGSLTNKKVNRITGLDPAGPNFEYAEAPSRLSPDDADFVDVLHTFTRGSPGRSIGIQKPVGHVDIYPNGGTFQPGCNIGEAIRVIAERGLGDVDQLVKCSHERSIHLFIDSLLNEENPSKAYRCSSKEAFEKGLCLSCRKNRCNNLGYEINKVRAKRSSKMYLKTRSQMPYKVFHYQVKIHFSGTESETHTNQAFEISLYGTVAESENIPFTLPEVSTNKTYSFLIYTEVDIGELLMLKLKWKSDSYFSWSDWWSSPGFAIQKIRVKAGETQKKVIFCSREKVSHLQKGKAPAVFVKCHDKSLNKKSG
T1 sequence (Q8IV16 21-151 partner limits assumed): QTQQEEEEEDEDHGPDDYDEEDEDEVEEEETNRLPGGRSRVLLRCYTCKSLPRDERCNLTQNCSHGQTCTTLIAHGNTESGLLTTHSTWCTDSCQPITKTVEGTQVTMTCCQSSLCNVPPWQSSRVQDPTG
Format: biochemical
Procedure: The assay was performed in black 1536-well plates using purified proteins. To identify compounds that stimulate LPL activity either by directly activating LPL or by inhibiting the antagonist ANGPTL4, the LPL:sGPIHBP1 complex was pre-incubated with ANGPTL4 to decrease LPL activity by 80%. After a 60 min pre-incubation, the reaction was started by adding the RB substrate. 30 min after RB addition, the enzymatic reaction was stopped using SDS. Fluorescence intensity was measured 2 h after stopping the reaction.
20 or 40 nl of compound solution in 100% DMSO were placed in test plate. Then was added LPL:sGPIHBP1 to all wells (diluted in assay buffer to 5 nM; 2 μl/well). This was followed by an addition of ANGPTL4 to compounds and neutral controls (diluted in assay buffer to 20 nM; 1 μl/well). A buffer solution was added to the stimulator control (1 μl/well). The plates were then centrifuged and pre-incubated for 60 min at RT. The reaction was started by adding substrate to all wells (diluted in assay buffer to 40 μM, 1 μl/well). The plated were centrifuged (800 rpm for 1 min) and incubated 30 min at RT (=reaction time). The reaction was stopped by adding SDS to all wells (diluted in water to 2.5%, 2 μl/well); incubated 2 h at RT. The fluorescence intensity (ex 540 nm/em 590 nm) was measured on a Pherastar (BMG) using 5 flashes.

SMILES	EC50 [µM]
O=C(O)Cc1cc(F)ccc1NC(=O)c1ccc(N2CCCCC2=O)c(NC(=O)c2nn(CC(F)(F)F)c3ccccc23)c1 [Example 59]	> 25
CC(C1CCOCC1)n1nc(C(=O)Nc2cc(C(=O)Nc3ccc(F)cc3CC(=O)O)ccc2N2CCCCC2)c2ccccc21 (stereo not drawn) [Compound 148, 2-(5-fluoro-2-(4-(piperidin-1-yl)-3-(1-(1-(tetrahydro-2H-pyran-4-yl)ethyl)-1H-indazole-3-carboxamido)benzamido)phenyl)acetic acid]	> 25
O=C(O)Cc1cc(F)ccc1NC(=O)c1ccc(N2CCCCC2)c(NC(=O)c2nn(CC(F)(F)F)cc2C2CC2)c1 [Compound 117, 2-(2-(3-(4-cyclopropyl-1-(2,2,2-trifluoroethyl)-1H-pyrazole-3-carboxamido)-4-(piperidin-1-yl)benzamido)-5-fluorophenyl)acetic acid]	> 25
O=C(O)Cc1cc(F)ccc1NC(=O)c1ccc(N2CCCCC2)c(NC(=O)c2nn(CCO)c3ccccc23)c1 [Compound 99, 2-(5-fluoro-2-(3-(1-(2-hydroxyethyl)-1H-indazole-3-carboxamido)-4-(piperidin-1-yl)benzamido)phenyl)acetic acid]	> 25
CC1(C)CCN(c2ccc(C(=O)Nc3ccc(F)cc3CC(=O)O)cc2NC(=O)c2nn(CC(F)(F)F)c3ccccc23)CC1 [Example 61]	3.6
O=C(O)Cc1cc(C(F)(F)F)ccc1NC(=O)c1ccc(N2CCCCC2)c(NC(=O)c2nn(CC(F)(F)F)c3ccccc23)c1 [Example 22]	4.3
Cc1ccc2c(c1)c(C(=O)Nc1cc(C(=O)Nc3ccc(F)cc3CC(=O)O)ccc1N1CCCCC1)nn2CC(F)(F)F [Compound 142, 2-(5-fluoro-2-(3-(5-methyl-1-(2,2,2-trifluoroethyl)-1H-indazole-3-carboxamido)-4-(piperidin-1-yl)benzamido)phenyl)acetic acid]	> 7.1
O=C(O)Cc1cc(F)ccc1NC(=O)c1ccc(N2CCCCC2)c(NC(=O)c2nn(CC3CCCO3)c3ccccc23)c1 (stereo not drawn) [Compound 119, 2-(5-fluoro-2-(4-(piperidin-1-yl)-3-(1-((tetrahydrofuran-2-yl)methyl)-1H-indazole-3-carboxamido)benzamido)phenyl)acetic acid]	6.6
O=C(O)Cc1cc(F)ccc1NC(=O)c1ccc(N2CCCCC2)c(NC(=O)c2cn3ccccc3n2)c1 [Compound 109, 2-(5-fluoro-2-(3-(imidazo[1,2-a]pyridine-2-carboxamido)-4-(piperidin-1-yl)benzamido)phenyl)acetic acid]	> 25
O=C(O)Cc1cc(F)ccc1NC(=O)c1cc(NC(=O)c2nn(CC(F)(F)F)c3ccccc23)c(N2CCCCC2)cn1 [Compound 43, 2-(5-fluoro-2-(5-(piperidin-1-yl)-4-(1-(2,2,2-trifluoroethyl)-1H-indazole-3-carboxamido)picolinamido)phenyl)acetic acid]	> 7.1
O=C(O)Cc1cc(F)ccc1NC(=O)c1ccc(N2CCCCC2)c(NC(=O)c2nn(CC(F)(F)F)c3ccncc23)c1 [Compound 107, 2-(5-fluoro-2-(4-(piperidin-1-yl)-3-(1-(2,2,2-trifluoroethyl)-1H-pyrazolo[4,3-c]pyridine-3-carboxamido)benzamido)phenyl)acetic acid]	> 7.1
CC(n1nc(C(=O)Nc2cc(C(=O)Nc3ccc(F)cc3CC(=O)O)ccc2N2CCCCC2)c2ccccc21)C(F)(F)F (stereo not drawn) [Compound 146, 2-(5-fluoro-2-(4-(piperidin-1-yl)-3-(1-(1,1,1-trifluoropropan-2-yl)-1H-indazole-3-carboxamido)benzamido)phenyl)acetic acid]	> 7.1
Cc1c(C(=O)Nc2cc(C(=O)Nc3ccc(F)cc3CC(=O)O)ccc2N2CCCCC2)c2ccccc2n1CC(F)(F)F [Compound 130, 2-(5-fluoro-2-(3-(2-methyl-1-(2,2,2-trifluoroethyl)-1H-indole-3-carboxamido)-4-(piperidin-1-yl)benzamido)phenyl)acetic acid]	> 25
O=C(O)Cc1cc(F)ccc1NC(=O)c1ccc(N2C3CCC2CC3)c(NC(=O)c2nn(CC(F)(F)F)c3ccccc23)c1 [Example 54]	6.9
O=C(O)Cc1cc(F)ccc1NC(=O)c1ccc(N2CC3(CCC3)C2)c(NC(=O)c2nn(CC(F)(F)F)c3ccccc23)c1 [Example 49]	20
O=C(O)Cc1cc(F)ccc1NC(=O)c1ccc(N2CCCCC2)c(NC(=O)c2cc(-c3ccccc3)n(CC(F)(F)F)n2)c1 [Compound 116, 2-(5-fluoro-2-(3-(5-phenyl-1-(2,2,2-trifluoroethyl)-1H-pyrazole-3-carboxamido)-4-(piperidin-1-yl)benzamido)phenyl)acetic acid]	23

Continued by falling EC50, values first:

EC50 [µM]	SMILES
6.1	O=C(O)Cc1cc(F)ccc1NC(=O)c1ccc(N2CCCCC2)c(NC(=O)c2nn(CC3CCC3)c3ccccc23)c1 [Compound 98, 2-(2-(3-(1-(cyclobutylmethyl)-1H-indazole-3-carboxamido)-4-(piperidin-1-yl)benzamido)-5-fluorophenyl)acetic acid]
5.1	N#CCn1nc(C(=O)Nc2cc(C(=O)Nc3ccc(F)cc3CC(=O)O)ccc2N2CCCCC2)c2ccccc21 [Compound 102, 2-(2-(3-(1-(cyanomethyl)-1H-indazole-3-carboxamido)-4-(piperidin-1-yl)benzamido)-5-fluorophenyl)acetic acid]
5	O=C(O)Cc1c(F)cccc1NC(=O)c1ccc(N2CCCCC2)c(NC(=O)c2nn(CC(F)(F)F)c3ccccc23)c1 [Compound 37, 2-(2-fluoro-6-(4-(piperidin-1-yl)-3-(1-(2,2,2-trifluoroethyl)-1H-indazole-3-carboxamido)benzamido)phenyl)acetic acid]
4.7	Cc1cc(Cn2nc(C(=O)Nc3cc(C(=O)Nc4ccc(F)cc4CC(=O)O)ccc3N3CCCCC3)c3ccccc32)no1 [Compound 124, 2-(5-fluoro-2-(3-(1-((5-methylisoxazol-3-yl)methyl)-1H-indazole-3-carboxamido)-4-(piperidin-1-yl)benzamido)phenyl)acetic acid]
4.4	O=C(O)Cc1cc(F)ccc1NC(=O)c1ccc(N2CCCCC2)c(NC(=O)c2cc(-c3ccccc3)nn2CC(F)(F)F)c1 [Compound 134, 2-(5-fluoro-2-(3-(3-phenyl-1-(2,2,2-trifluoroethyl)-1H-pyrazole-5-carboxamido)-4-(piperidin-1-yl)benzamido)phenyl)acetic acid]
4.2	O=C(O)Cc1cc(F)ccc1NC(=O)c1ccc(N2CCCCC2)c(NC(=O)c2nn(CC3CCCOC3)c3ccccc23)c1 (stereo not drawn) [Compound 133, 2-(5-fluoro-2-(4-(piperidin-1-yl)-3-(1-((tetrahydro-2H-pyran-3-yl)methyl)-1H-indazole-3-carboxamido)benzamido)phenyl)acetic acid]
3.8	C#CCn1nc(C(=O)Nc2cc(C(=O)Nc3ccc(F)cc3CC(=O)O)ccc2N2CCCCC2)c2ccccc21 [Compound 122, 2-(5-fluoro-2-(4-(piperidin-1-yl)-3-(1-(prop-2-yn-1-yl)-1H-indazole-3-carboxamido)benzamido)phenyl)acetic acid]
3.2	O=C(O)Cc1cc(F)ccc1NC(=O)c1ccc(N2CCCCC2)c(NC(=O)c2nn(CC3CCOCC3)c3ccccc23)c1 [Compound 104, 2-(5-fluoro-2-(4-(piperidin-1-yl)-3-(1-((tetrahydro-2H-pyran-4-yl)methyl)-1H-indazole-3-carboxamido)benzamido)phenyl)acetic acid]
